# Assays:
# Type in all cases: in vivo
# carrot young plants = assay: Dwarfing test of carrot young plant; settings: for Plant Height / Dwarfing Rate: 5 ml per cell on 5th day, measured 27th day; for Dwarfing Rate: vs comparative group
# Procedure: Dwarfing rate (%)=[(the plant height of the comparative group)−(the plant height of an addition group)/the plant height of the comparative group]×100
# (§1) 50 g of sodium tripolyphosphate was dissolved in 400 ml of distilled water at 80° C., 17.5 g of cinnamic acid was added to the sodium tripolyphosphate solution and dissolved by stirring, the resultant solution was diluted with distilled water until the total volume of solution was 500 ml, and thus 3.5% cinnamic acid aqueous solution (pH 6.5) was prepared. The aqueous solution was further diluted with distilled water 70 times or 17.5 times, and 0.05% cinnamic acid aqueous solution and 0.2% cinnamic acid aqueous solution were prepared, respectively.
# Nursery soil for house use was filled into paper joint pots (each with 24 cells: 34×43×50 mm/cell), water was sufficiently given to the soil, and seeds of carrots were sowed. After seeding, the pot was placed in the same greenhouse as described above to sprout. Subsequently, on the 5th day, the cinnamic aqueous acid solutions were added to the nursery soil in the joint pots. One of the joint pots (24 cells) was prepared as a 0.05% cinnamic acid aqueous solution addition group, and 5 ml of the 0.05% cinnamic acid aqueous solution was added to the nursery soil of each cell. Another one of the join pots was prepared as a 0.2% cinnamic acid aqueous solution addition group, and 5 ml of the 0.2% cinnamic acid aqueous solution was added to the nursery soil of each cell. The other one of the joint pots was prepared as a comparative group in which 5 ml of water is added to each cell, instead of the cinnamic acid aqueous solution. Subsequently, the cultivation of carrot young plants in each group was continued under general conditions. On the 27th day, the heights of young plants in each group were measured, the dwarfing rate (%) was calculated, and the dwarfing effect of cinnamic acid aqueous solution on carrot young plants was examined. […]
# cucumber young plants = assay: Dwarfing test of cucumber young plant; settings: for Plant Height / Dwarfing Rate: 5 ml per cell on 7th day, measured 20th day; for Dwarfing Rate: vs comparative group
# Procedure: After seeding, the pot was placed in the same greenhouse as described above to sprout. Subsequently, on the 5th day, the cinnamic aqueous acid solutions were added to the nursery soil in the joint pots. One of the joint pots (24 cells) was prepared as a 0.05% cinnamic acid aqueous solution addition group, and 5 ml of the 0.05% cinnamic acid aqueous solution was added to the nursery soil of each cell. Another one of the join pots was prepared as a 0.2% cinnamic acid aqueous solution addition group, and 5 ml of the 0.2% cinnamic acid aqueous solution was added to the nursery soil of each cell. […] Subsequently, the cultivation of carrot young plants in each group was continued under general conditions. On the 27th day, the heights of young plants in each group were measured, the dwarfing rate (%) was calculated, and the dwarfing effect of cinnamic acid aqueous solution on carrot young plants was examined. From the results in Table 5, it became evident that the 0.05% and 0.2% cinnamic acid aqueous solutions are effective in dwarfing carrot young plants. In the same way as in Example 5 except that seeds of cauliflower were sowed, the cinnamic acid solutions were added to the nursery soil in the joint pot on the 4th day, and that heights of young plants in each group were measured on the 20th day, the dwarfing effect of cinnamic acid aqueous solution on cauliflower young plants was examined. From the results in Table 12, it became evident that the cinnamic acid aqueous solutions are effective in dwarfing cauliflower young plants. In the same way as in Example 12 except that seeds of tomato were sowed, and that the cinnamic acid solutions were added to the nursery soil of the joint pot on the 7th day, the dwarfing effect of cinnamic acid aqueous solution on tomato young plants was examined. From the results in Table 17, it became evident that the cinnamic acid aqueous solutions are effective in dwarfing tomato young plants. In the same way as in Example 17 except that seeds of cucumber were sowed, the dwarfing effect of cinnamic acid aqueous solution on cucumber young plants was examined. From the results in Table 18, it became evident that the cinnamic acid aqueous solutions are effective in dwarfing cucumber young plants.
# newmelon young plants = assay: Dwarfing test of newmelon young plant; settings: for Plant Height / Dwarfing Rate: 5 ml per cell on 7th day, measured 27th day; for Dwarfing Rate: vs comparative group
# Procedure: as §1
# Nursery soil for house use was filled into paper joint pots (each with 24 cells: 34×43×50 mm/cell), water was sufficiently given to the soil, and seeds of carrots were sowed. After seeding, the pot was placed in the same greenhouse as described above to sprout. Subsequently, on the 5th day, the cinnamic aqueous acid solutions were added to the nursery soil in the joint pots. One of the joint pots (24 cells) was prepared as a 0.05% cinnamic acid aqueous solution addition group, and 5 ml of the 0.05% cinnamic acid aqueous solution was added to the nursery soil of each cell. Another one of the join pots was prepared as a 0.2% cinnamic acid aqueous solution addition group, and 5 ml of the 0.2% cinnamic acid aqueous solution was added to the nursery soil of each cell. The other one of the joint pots was prepared as a comparative group in which 5 ml of water is added to each cell, instead of the cinnamic acid aqueous solution. Subsequently, the cultivation of carrot young plants in each group was continued under general conditions. On the 27th day, the heights of young plants in each group were measured, the dwarfing rate (%) was calculated, and the dwarfing effect of cinnamic acid aqueous solution on carrot young plants was examined. […].
# In the same way as in Example 12 except that seeds of tomato were sowed, and that the cinnamic acid solutions were added to the nursery soil of the joint pot on the 7th day, the dwarfing effect of cinnamic acid aqueous solution on tomato young plants was examined. […].
# In the same way as in Example 17 except that seeds of watermelon were sowed, and that plant heights were measured on the 27th day, the dwarfing effect of cinnamic acid aqueous solution on watermelon young plants was examined. […].
# In the same way as in Example 21 except that seeds of newmelon were sowed, the dwarfing effect of cinnamic acid aqueous solution on newmelon young plants was examined. […]
smiles,measurement,setting,value
O=C(O)C=Cc1ccccc1 [cinnamic acid],Plant Height,carrot young plants; 0.05% aqueous solution,7.9 cm
same,Dwarfing Rate,carrot young plants; 0.05% aqueous solution,7.1%
same,Plant Height,carrot young plants; 0.2% aqueous solution,6.9 cm
same,Dwarfing Rate,carrot young plants; 0.2% aqueous solution,18.8%
same,dwarfing effect,"carrot young plants; carrot young plants, 0.05% and 0.2% aqueous solutions",effective
same,Plant Height,cucumber young plants; 0.05% aqueous solution,7.8 cm
same,Dwarfing Rate,cucumber young plants; 0.05% aqueous solution,21.2%
same,Plant Height,cucumber young plants; 0.2% aqueous solution,6.2 cm
same,Dwarfing Rate,cucumber young plants; 0.2% aqueous solution,37.4%
same,dwarfing effect,"cucumber young plants; cucumber young plants, 0.05% and 0.2% aqueous solutions",effective
same,Plant Height,newmelon young plants; 0.05% aqueous solution,7.3 cm
same,Dwarfing Rate,newmelon young plants; 0.05% aqueous solution,6.4%
same,Plant Height,newmelon young plants; 0.2% aqueous solution,4.9 cm
same,Dwarfing Rate,newmelon young plants; 0.2% aqueous solution,37.2%
same,dwarfing effect,"newmelon young plants; newmelon young plants, 0.05% and 0.2% aqueous solutions",effective
